What was measured:
[1] = biological target: T1, ThrC (threonine synthase; ThrC-His6) (Microcystis aeruginosa, UniProt A0AB33BYK2); test: in vitro threonine deaminase assay, inhibition; format: biochemical; conditions: threonine as substrate; concentration-dependent inhibition
T1 construct: gene BH695_2536; full-length thrC (1,304 bp), N-terminal His6 tag from pET-28b(+), E. coli BL21(DE3), Ni-NTA purified; tag cleavage not mentioned

[2] = biological target: T1, ThrC (threonine synthase; ThrC-His6); test: alpha-ketobutyrate formation (semicarbazide / […],4-DNPH), threonine deaminase activity, sigmoidal fit; format: biochemical; conditions: 50 mM PIPES pH 8.0, 100 mM KCl, 0.1 mM EDTA, 1 mM DTT, PLP, 25 °C; sigmoidal kinetics
[3] = biological target: T1, ThrC (threonine synthase; ThrC-His6); test: yellow colour of purified enzyme; PLP-dependent threonine deamination spectra; format: binding; conditions: threonine as substrate; 50 mM PIPES pH 8.0

T1 sequence (A0AB33BYK2 entry or part of it): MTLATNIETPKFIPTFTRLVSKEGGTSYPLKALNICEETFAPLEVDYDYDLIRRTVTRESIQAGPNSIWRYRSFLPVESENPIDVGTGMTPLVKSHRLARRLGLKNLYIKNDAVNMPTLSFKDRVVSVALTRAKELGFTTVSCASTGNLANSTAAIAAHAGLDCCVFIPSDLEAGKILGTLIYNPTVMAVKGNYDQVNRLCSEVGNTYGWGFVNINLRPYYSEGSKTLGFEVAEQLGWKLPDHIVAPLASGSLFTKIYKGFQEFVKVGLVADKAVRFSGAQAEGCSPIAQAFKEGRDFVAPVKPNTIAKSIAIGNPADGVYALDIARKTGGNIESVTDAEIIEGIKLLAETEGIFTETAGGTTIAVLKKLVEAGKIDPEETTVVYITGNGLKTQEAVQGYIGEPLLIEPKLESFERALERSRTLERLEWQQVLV

Question: Which inhibition [1] does the source give for `CC[C@H](C)[C@H](N)C(=O)O` [isoleucine] here?
Answer: Its inhibition is “alanine and isoleucine, also exhibited concentration-dependent inhibitory activity against aKB-generating deaminases”.

Question: `C[C@H](N)C(=O)O` [alanine] was tested. Which inhibition [1] did it give?
Answer: The inhibition was “alanine and isoleucine, also exhibited concentration-dependent inhibitory activity against aKB-generating deaminases”.

Question: For `C[C@@H](O)[C@H](N)C(=O)O` [threonine], which K0.5 [2] is on record?
Answer: The K0.5 was “The sigmoidal kinetics of ThrC as a threonine deaminase were analyzed in the presence of threonine”.

Question: How did the “yellow colour of purified enzyme; PLP-dependent threonine deamination spectra” value [3] turn out when `Cc1ncc(COP(=O)(O)O)c(C=O)c1O` [PLP] was run?
Answer: The value was “threonine synthase could utilize PLP as a catalyst to degrade threonine into keto acids”.

Reference: publication PMC12172450, “Moonlighting activity of threonine synthase in cyanobacterial cell death” (mSystems, 2025)
